The values that follow come from US10688077B2, “Inflammasome activation in myelodysplastic syndromes” (H. Lee Moffitt Cancer Center and Research Institute, Inc., priority 2015, dated 2020).

The test system of series [1] is SF3B1-K700E mutant-expressing BM cells. Nature of the series: Nuclear β-catenin confocal microscopy, SF3B1-K700E BM cells. It is filed as cell-based, mice. To be noted: treated 24 hours. How it is done:
(§1) MDS and normal donor BM-MNC and mouse BM cells were stained with 30×FAM-FLICA® Caspase-1 solution at a ratio of 1:30 for 2 hours at 37° C. Cells were washed and cytospins were generated using a 5 minutes centrifugation at 450 rpm. Slides were fixed at 37° C. for 10 minutes using BD Cytofix Fixation Buffer (BD Biosciences), and subsequently washed using PBS. Cells were permeabilized with 0.1% Triton X-100/2% BSA in PBS for 15 minutes at room temperature. After washing with PBS, cells were blocked using 2% BSA in PBS for 30 minutes at room temperature, and washed again. Cells were incubated with the appropriate primary antibody overnight (1:400 for NLRP3, 1:20 for β-catenin) at 4° C. The next day, cells were washed with PBS and incubated with the appropriate secondary antibodies (1:500) for 1 hour at room temperature. After washing, cells were covered with ProLong Gold Antifade Reagent with DAPI prior to the addition of a coverslip (Life Technologies). Co-localization of a-caspase-1 with NLRP3 inflammasome complexes was assessed using a Leica TCS SP5 AOBS Laser Scanning Confocal microscope (Leica Microsystems). Analysis of the inflammasome images was performed with Definiens Developer 2.0 (Definiens AG). The software was used to segment cells based on brightness and size thresholds, followed by a watershed segmentation algorithm. […]

For series [2], the system named is SF3B1-K700E-expressing mutant BM cells. Kind of series: ROS detection by flow cytometry, SF3B1-K700E BM cells. Type of series: cell-based, mice. From the text:
(§2) ROS were detected using CM-H2DCFDA and CellROX® Deep Red Reagent according to manufacturer's protocol (Life Technologies).
On the technique in general: Flow cytometry measures light scatter and fluorescence of single cells or particles in a stream.

Series [3] deals with U2AF1 S34F mutant expressing TF-1 cells. Nature of the series: Nuclear β-catenin confocal microscopy in U2AF1-S34F mutant cells. Type of series: cell-based. To be noted: treated 24 hours prior to staining.
Series [4] relates to SF3B1-K700E mutant-expressing BM cells. Nature of the series: ASC staining to detect inflammasome formation by flow cytometry, SF3B1-K700E BM cells. It is filed as cell-based, mice. To be noted: treated 24 hours. The protocol:
Staining was carried out as described ([…], et al. J Immunol. 2015 194(1):455-62). Briefly, cell pellets were resuspended in 1 mL of prewarmed BD Permeabilization Buffer III, and incubated on ice for 30 minutes. Cells were washed 2× with staining buffer. Following washing, cells were stained with rabbit-anti-ASC primary antibodies at a 1:1500 dilution and incubated for 90 minutes. Cells were washed, stained with secondary antibodies at a dilution of 1:1500, and incubated for 45 minutes. Cells were washed, and sample acquisitions were carried out using a BD LSR II flow cytometer and FACSDiva software.

Series [5] has as its system normal BM-MNC. Nature of the series: Nuclear β-catenin confocal microscopy in normal BM-MNC. Type of series: cell-based, human. How it is done: as §1
In series [6] the test system is BM cells isolated from WT mice. Kind of series: a-caspase-1/NLRP3 confocal microscopy in WT mouse BM cells treated with rhS100A9. Type of series: cell-based. To be noted: 5 μg/mL, 24 hours. The protocol:
(§3) MDS and normal donor BM-MNC and mouse BM cells were stained with 30×FAM-FLICA® Caspase-1 solution at a ratio of 1:30 for 2 hours at 37° C. Cells were washed and cytospins were generated using a 5 minutes centrifugation at 450 rpm. Slides were fixed at 37° C. for 10 minutes using BD Cytofix Fixation Buffer (BD Biosciences), and subsequently washed using PBS. Cells were permeabilized with 0.1% Triton X-100/2% BSA in PBS for 15 minutes at room temperature. After washing with PBS, cells were blocked using 2% BSA in PBS for 30 minutes at room temperature, and washed again. Cells were incubated with the appropriate primary antibody overnight (1:400 for NLRP3, 1:20 for β-catenin) at 4° C. The next day, cells were washed with PBS and incubated with the appropriate secondary antibodies (1:500) for 1 hour at room temperature. After washing, cells were covered with ProLong Gold Antifade Reagent with DAPI prior to the addition of a coverslip (Life Technologies). Co-localization of a-caspase-1 with NLRP3 inflammasome complexes was assessed using a Leica TCS SP5 AOBS Laser Scanning Confocal microscope (Leica Microsystems). Analysis of the inflammasome images was performed with Definiens Developer 2.0 (Definiens AG). The software was used to segment cells based on brightness and size thresholds, followed by a watershed segmentation algorithm. Intensity values and Pearson's correlation coefficient were extracted from the segmented cells. For β-catenin image analysis, confocal images were imported into Definiens Tissue Studio v3.0, 64 Dual in .tif format. Cells were separated from background using the RGB thresholds. Nuclei were identified by setting thresholds in the DAPI channel. Typical cells averaged 60 microns. The red intensity (β-catenin) in the nucleus and cytoplasm was established by setting thresholds to low, medium and high in the red channel on a scale of 0-255 in the red channel.

Series [7] relates to U937 cells. Nature of the series: Nuclear β-catenin confocal microscopy in U937 cells. To be noted: 5 μg/mL, 24 hours, compared to untreated cells. It is filed as cell-based.
Series [8] concerns normal BM-MNC. Kind of series: a-caspase-1/NLRP3 confocal microscopy in normal BM-MNC treated with rhS100A9. It is filed as cell-based, human. To be noted: 5 pig/mL rhS100A9, 24 hours. How it is done: as §3
The subject of series [9] is normal BM-MNC. Nature of the series: qPCR of pyroptosis-associated genes in normal BM-MNC treated with rhS100A9. To be noted: 1 μg/mL, 24 hours, n=2. It is filed as cell-based, human. The protocol: PCR RNA was isolated from BM-MNC using the RNeasy Mini Kit (Qiagen). cDNA was produced using the iScript cDNA Synthesis Kit (Bio-Rad). Sequences for primers can be found in Table 1. GAPDH mRNA was used for transcript normalization. cDNA was amplified using the iQ SYBR Green Supermix and the CFX96 Real-Time PCR Detection System (Bio-Rad). PCR conditions were as follows: 10 minutes at 95° C., followed by 40 cycles of amplification (15 seconds at 95° C. and 1 minute at 60° C.). Relative gene expression was calculated using the […] method.

Series [10] deals with U937 cells. Kind of series: NLRP3 inflammasome confocal microscopy in U937 cells. It is filed as cell-based. To be noted: 5 μg/mL, 24 hours.
For series [11], the system named is U937 cells. Kind of series: Comet assay (DNA damage) in U937 cells. Type of series: cell-based. To be noted: 5 μg/mL, 24 hours, compared to untreated cells. How it is done: Monocytic U937 cells were treated with 5 μg/mL rhS100A9 for 24 hr.
DNA damage was measured by single cell gel electrophoresis using alkaline CometAssay® according to manufacturer's protocol (Trevigen Inc.).

In series [12] the test system is U937 cells. Kind of series: ROS detection by flow cytometry in U937 cells. Type of series: cell-based. To be noted: 5 μg/mL, 24 hours, compared to untreated cells.
Excerpt: as §2

Series [13] has as its system U937 cells. Kind of series: Pore formation, ethidium bromide uptake in U937 cells. Type of series: cell-based. To be noted: 5 μg/mL rhS100A9, 12.5 μg/mL ethidium bromide.
For series [14], the system named is U937 cells. Nature of the series: S100A9 flow cytometry experiments in U937 cells (a-caspase-1/annexin-V). It is filed as cell-based. The protocol:
Monocytic U937 cells were treated with the indicated concentrations of rhS100A9 for 24 hours, or with 5 μg/mL rhS100A9 for the indicated time points. Subsequently, cells were stained with 30×FAM-FLICA® Caspase-1 solution at a ratio of 1:30 for 2 hours at 37° C. Cells were washed, resuspended in 1× binding buffer, and stained with Annexin-V:PE at a dilution of 1:30 for 15 minutes at room temperature. 1× binding buffer was added to a final volume of 350 μL. Sample acquisitions were carried out using a BD FACSCalibur flow cytometer (BD Biosciences). Data were analyzed using FlowJo 9.7.5 software.

In the case of `c1ccc2c(c1)[I+]c1ccccc1-2` [DPI], the “percentage of cells with elevated levels of nuclear β-catenin” value in series [1] is given as “significantly reduced”. Moreover, in series [2], the “ROS MFI” value is listed as “extinguished below the level of WT controls” and the “mean percentage of ROS+ cells” value is listed as “extinguished below the level of WT controls”. Also, the “β-catenin activation (nuclear β-catenin)” value in series [3] is “effectively reduced β-catenin activation”. Further, the “inflammasome formation (ASC oligomerization)” value in series [4] is given as “significantly reduced”.
On to `CC(=O)N[C@@H](CS)C(=O)O` [NAC, N-acetylcysteine], for which, in series [1], the “percentage of cells with elevated levels of nuclear β-catenin” value is reported as “significantly reduced”. Further, in series [2], the “ROS MFI” value was “extinguished below the level of WT controls” and the “mean percentage of ROS+ cells” value is given as “extinguished below the level of WT controls”. For the same compound, the “β-catenin activation (nuclear β-catenin)” value in series [3] is “effectively reduced β-catenin activation”. Also, the “S100A9-triggered nuclear translocation of β-catenin” value in the series with normal BM-MNC [5] (S100A9 treated normal BM-MNC) was “abolished”. Also, in series [4], the “inflammasome formation (ASC oligomerization)” value is “significantly reduced”.
Regarding “rhS100A9: recombinant human S100A9, DAMP/alarmin protein, TLR4 and CD33 ligand”, the inflammasome complexes entry in series [6] (p=0.023) is listed as “marked induction”. The “MFI of NLRP3” value in series [6] (versus controls, p=0.017) was “significantly increased”. The “MFI of a-caspase-1” value in series [6] (versus controls, p=7.5×10^−3) is on record as “significantly increased”. Besides, in the series on U937 cells [7], the “levels of nuclear (activated) β-catenin” value is given as “marked increases”. Moreover, in the series on normal BM-MNC [8], the a-caspase-1 levels induced is 2.5 fold and the “formation of NLRP3 inflammasomes induced” value worked out at 2.9 fold. The same compound had an NLRP3 levels induced in the series on normal BM-MNC [8] (p=0.064) of 47.1 fold. In the series on normal BM-MNC [9], the “expression of pyroptosis-associated genes” value is recorded as “significantly up-regulated”. Moreover, the “levels of NLRP3 inflammasome complexes” value in the series with U937 cells [10] was “markedly increased”. In the series with U937 cells [11], the “increase in DNA damage” value came to 4.1 fold. Also, in the series with U937 cells [12], the “increase in the mean percentage of ROS-positive cells” value was 2.9 fold. Further, in the series on U937 cells [13], the “uptake of ethidium bromide” value was “rapid and substantial uptake”. In addition, the “activation of caspase-1” value in the series on U937 cells [14] (5 μg/mL, over time) is on record as “time-dependent increase”. Also, in the series on U937 cells [14] (increasing concentrations, 24 hours), the “fraction of pyroptotic cells” value is recorded as “concentration-dependent increase”. The “levels of nuclear β-catenin” value in the series on normal BM-MNC [5] (5 μg/mL, 24 hours, compared to controls) is “elevated levels”.
